Data as given in US8298756B2, “Isolation, gene expression, and chemotherapeutic resistance of motile cancer cells” (Albert Einstein College of Medicine of Yeshiva University, priority 2004, dated 2012).

Columns and labels:
MTLn3 cells = settings: previous studies (Huigsloot et al., 2002); cited from earlier work
[1] = tested on: invasive cells and general population of carcinoma cells from MTLn3-derived tumors; assay: Cell culture and apoptosis assay (Annexin V-Cy5 / PI) after drug challenge, invasive cells vs general population; format: cell-based, rat; settings: for drug tolerance (apoptotic index and cell viability) of invasive cells: as a percentage of all carcinoma cells, invasive vs general population of tumor cells, 24 hr recovery after drug, FIG. 3; for drug induced apoptotic index / cell death: invasive cells compared to carcinoma cells of the whole tumor, doxorobucin 17 μM, cisplatin 50 μM, etoposide 50 μM for 1 hr, 24 hrs recovery; for drug induced apoptotic index: Annexin V-Cy5; for cell death: PI staining
Experimental: The cells collected by the needle collection procedure were subjected to drug challenge using doxorobucin (17 μM), cisplatin (50 μM) or etoposide (50 μM). The apoptotic status and viability of these cells was assessed by staining with propedium iodide (PI) and Annexin V-Cy5. […] The graph represents viability status and apoptotic index of the cells after being challenged by the anticancer drugs. Cell culture and apoptosis assay. The cells extruded from the needles and tumor cells FACS sorted were cultured in DMEM 20% FCS along with streptomycin and penicillin, for 16 hrs. Subsequently, the cells were challenged with either doxorobucin (17 μM) or cisplatin (50 μM) or etoposide (50 μM) for 1 hr, washed and allowed to recover for 24 hrs. The cells were then subjected to an apoptosis assay kit containing Annexin V Cy5 for staining the apoptotic cells and Propedium Iodide (PI) for staining the dead cells (BD Biosciences San Jose, Calif.). After staining the cells using the manufacturer's protocol, the cells were observed under a fluorescent microscope in the green, red and high red channel for GFP, PI and Cy5 respectively. The total number of GFP cells counted was compared to the number of PI positive and Annexin V-Cy5 positive cells. […] We challenged the invasive cells with three most commonly used anticancer drugs, doxorobucin, cisplatin and etoposide. […] We performed these studies on the invasive and general populations of cells from MTLn3-derived tumors. After treatment with the drugs the cells were allowed to recover for 24 hr. Subsequently, the apoptotic index and cell viability was measured as described in the Methods section.

SMILES | induction of apoptosis (MTLn3 cells) | drug tolerance (apoptotic index and cell viability) of invasive cells [1] | drug induced apoptotic index [1] | cell death [1]
N.N.[Cl][Pt][Cl] [cisplatin] | induce apoptosis | invasive cells are able to tolerate all three drugs better than the general population of tumor cells | lower drug induced apoptotic index | lower cell death
COc1cccc2c1C(=O)c1c(O)c3c(c(O)c1C2=O)C[C@@](O)(C(=O)CO)C[C@@H]3O[C@H]1C[C@H](N)[C@H](O)[C@H](C)O1 [doxorubicin] | induce apoptosis | invasive cells are able to tolerate all three drugs better than the general population of tumor cells | lower drug induced apoptotic index | lower cell death
COc1cc([C@@H]2c3cc4c(cc3[C@@H](O[C@@H]3O[C@@H]5CO[C@@H](C)O[C@H]5[C@H](O)[C@H]3O)[C@H]3COC(=O)[C@H]23)OCO4)cc(OC)c1O [etoposide] | induce apoptosis | invasive cells are able to tolerate all three drugs better than the general population of tumor cells | lower drug induced apoptotic index | lower cell death
